Assay results from paper PMC8058344, “ARIH1 signaling promotes anti-tumor immunity by targeting PD-L1 for proteasomal degradation” (Nature Communications, 2021).

Tested on: 4T1 tumor xenograft
Assay: 4T1 tumor xenograft model with ES-072 and/or anti-CTLA4
Type: in vivo, BALB/c mice
Description: Fig. 6 ARIH1 promotes anti-tumor immunity via PD-L1 degradation. a Immunoblot of PD-L1 and ARIH1 (HA) in H1975 cells transfected with HA-ARIH1 (WT or Y392C); HA-tagged empty vector (HA-EV) was transfected as a negative control. b Co-IP analysis for the interaction of K48-ubiquitin, ARIH1 (HA), and PD-L1 in HEK293T cells transfected with Flag-PD-L1 and HA-ARIH1 (WT or Y392C) in the presence of 10 μM MG132 for 6 h. c 4T1 cells were infected with an empty vector (CTRL) or two different ARIH1-overexpressing lentiviral preparations (OE#1 and OE#2). ARIH1 and PD-L1 levels were determined by immunoblotting. d–f Tumor growth (d, e) of CTRL (n = 10) and ARIH1-OE cells (n = 11) in BALB/c mice and final tumor weights (f). […]
For xenograft model with 4T1 cells and combination therapy with ES-072 and anti-CTLA4, 5 × 10^5 4T1 cells suspended in 50 μL PBS and Matrigel (1 : 1 v/v) were injected into the fourth breast fat pad. On days 3 after injection, tumor size was measured and calculated by using the formula 1/2 × length × width^2. […]
Excised tumors were digested in collagenase/hyaluronidase and DNase at 37 °C for 45 min to make cell suspension with a 45 μm filter (BD Bioscience). […] Data acquisition was performed using flow cytometry (Beckman Coulter Cytoflex) and data were analyzed using CytExpert V2.3 software. […]

C=CC(=O)Nc1cccc(Nc2nc(Nc3ccc(N4CCN(C)CC4)nc3OC)ncc2C(F)(F)F)c1 [ES-072]
tumor growth (4T1 cells in BALB/c mice, ES-072 60 mg/kg i.g. daily, anti-CTLA4 100 μg i.p. day 7, 10, 13): significantly decreased
PD-L1 levels in tumor lysates (4T1 tumors, western blotting): decreased
